Test results: US10501425B2, “Microbiocidal oxadiazole derivatives” (SYNGENTA PARTICIPATIONS AG, priority 2015, dated 2019)
Values joined by “and” are separate entries in the source; they are usually repeats but may differ in a detail not shown here. Equal entries are not always repeated.

How the values were obtained:
[1] = system: Puccinia recondita f. Sp. Tritici; assay: Puccinia recondita f. sp. tritici / wheat / leaf disc preventative (brown rust); assay type: in vivo; details: foliar, 200 ppm in the applied formulation, wheat leaf segments cv. Kanzler, preventative (inoculated 1 day after application), compared to untreated, read-out: disease control
How it was run: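 Sprayed at 200 ppm one day ahead of spore inoculation, wheat leaf segments of cultivar Kanzler sat on agar under 19° C., 75% relative humidity and alternating 12-hour light and dark. Efficacy was taken as percent disease control relative to untreated segments after 7 to 9 days.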

[2] = system: Puccinia recondita f. Sp. Tritici; assay: Puccinia recondita f. sp. tritici / wheat / leaf disc curative (brown rust); assay type: in vivo; details: foliar, 24 h, 200 ppm in the applied formulation, wheat leaf segments cv. Kanzler, curative (applied 1 day after inoculation), compared to untreated, read-out: disease control
How it was run: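 Curative test: wheat leaf segments cv. Kanzler on agar inoculated with spore suspension, kept dark at 19 °C/75% RH, then sprayed 1 day post-inoculation with compound diluted in water. Incubated at 19 °C, 75% RH, 12 h light/dark; percent disease control versus untreated scored 6–8 days after application.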

Phakopsora pachyrhizi = Phakopsora pachyrhizi / soybean / leaf disc preventative (Asian soybean rust); assay type: in vivo; details: foliar, 200 ppm in the applied formulation, soybean leaf disks, compared to untreated, read-out: disease control
How it was run: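 Read-out is percent disease control relative to untreated check discs, assessed once untreated discs show adequate disease, 12 to 14 days after application. Compounds, tested at 200 ppm in the applied formulation, are sprayed onto soybean leaf discs one day before inoculation with a spore suspension.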

[3] = system: Glomerella lacenarium (Colletotrichum lagenarium); assay: Glomerella lagenarium liquid culture / cucumber / preventative (anthracnose); assay type: cell-based; details: Colletotrichum orbiculare; 20 ppm in the applied formulation; liquid culture (PDB), growth inhibition measured photometrically 3 to 4 days after application; compared to untreated; read-out: disease control
How it was run: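 Conidia from cryogenic storage were mixed into potato dextrose broth. This was added to compound diluted from DMSO into 0.025% Tween20, tested at 20 ppm. Plates were incubated in the dark at 24 °C and 96% relative humidity, and growth was read photometrically after 2–7 days as % activity versus untreated check.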

SMILES | melting point | pest or weed control at 200 ppm [1] [%] | pest or weed control at 200 ppm [2] [%] | pest or weed control at 200 ppm (Phakopsora pachyrhizi) [%] | inhibition of growth at 20 ppm [3] [%]
CC(O)C(=O)NCc1ccc(-c2noc(C(F)(F)F)n2)cc1 (stereo not shown) [Compound 1.28, 2-hydroxy-N-[[4-[5-(trifluoromethyl)-1,2,4-oxadiazol-3-yl]phenyl]methyl]propanamide] | 90 to 94 °C | ≥ 80 | ≥ 80 | ≥ 80 | ≥ 80
O=C(CO)NCc1ccc(-c2noc(C(F)(F)F)n2)cc1 [Compound 1.27, 2-hydroxy-N-[[4-[5-(trifluoromethyl)-1,2,4-oxadiazol-3-yl]phenyl]methyl]acetamide] | 107 to 112 °C | ≥ 80 | ≥ 80 | – | ≥ 80
O=C(COC(F)F)NCc1ccc(-c2noc(C(F)(F)F)n2)cc1 [Compound 1.97, 2-(difluoromethoxy)-N-[[4-[5-(trifluoromethyl)-1,2,4-oxadiazol-3-yl]phenyl]methyl]acetamide] | 92 to 100 °C | ≥ 80 | ≥ 80 | ≥ 80 | ≥ 80
CCC(=O)NCC(F)c1ccc(-c2noc(C(F)(F)F)n2)cc1 (stereo not shown) [Compound 1.107, N-[2-fluoro-2-[4-[5-(trifluoromethyl)-1,2,4-oxadiazol-3-yl]phenyl]ethyl]propanamide] | 118 to 128 °C | ≥ 80 | ≥ 80 | ≥ 80 | ≥ 80
COC(C)(C)C(=O)NCc1ccc(-c2noc(C(F)(F)F)n2)cc1 [Compound 1.103, 2-methoxy-2-methyl-N-[[4-[5-(trifluoromethyl)-1,2,4-oxadiazol-3-yl]phenyl]methyl]propanamide] | 77 to 80 °C | ≥ 80 | ≥ 80 | ≥ 80 | ≥ 80
CCC(=O)NC1(c2ccc(-c3noc(C(F)(F)F)n3)cc2)CC1 [Compound 1.99, N-[1-[4-[5-(trifluoromethyl)-1,2,4-oxadiazol-3-yl]phenyl]cyclopropyl]propanamide] | 121 to 128 °C | ≥ 80 | ≥ 80 | ≥ 80 | ≥ 80
CCC(=O)NCCc1ccc(-c2noc(C(F)(F)F)n2)cc1 [Compound 1.29, N-[2-[4-[5-(trifluoromethyl)-1,2,4-oxadiazol-3-yl]phenyl]ethyl]propanamide] | 133.6 to 135 °C and 133 to 145 °C | ≥ 80 | ≥ 80 | ≥ 80 | ≥ 80
CC(C)(O)C(=O)NCc1ccc(-c2noc(C(F)(F)F)n2)cc1 [Compound 1.104, 2-hydroxy-2-methyl-N-[[4-[5-(trifluoromethyl)-1,2,4-oxadiazol-3-yl]phenyl]methyl]propanamide] | 95 to 98 °C | ≥ 80 | ≥ 80 | – | ≥ 80
CC(OC(F)F)C(=O)NCc1ccc(-c2noc(C(F)(F)F)n2)cc1 (stereo not shown) [Compound 1.33, 2-(difluoromethoxy)-N-[[4-[5-(trifluoromethyl)-1,2,4-oxadiazol-3-yl]phenyl]methyl]propanamide] | 66 to 70 °C | ≥ 80 | ≥ 80 | ≥ 80 | ≥ 80
COCC(=O)NC1(c2ccc(-c3noc(C(F)(F)F)n3)cc2)CC1 [Compound 1.96, 2-methoxy-N-[1-[4-[5-(trifluoromethyl)-1,2,4-oxadiazol-3-yl]phenyl]cyclopropyl]acetamide] | 95 to 99 °C | ≥ 80 | ≥ 80 | ≥ 80 | ≥ 80
CCC(=O)NCc1ccc(-c2noc(C(F)(F)F)n2)cc1Cl [Compound 1.32, N-[[2-chloro-4-[5-(trifluoromethyl)-1,2,4-oxadiazol-3-yl]phenyl]methyl]propanamide] | 126 to 130 °C | ≥ 80 | – | ≥ 80 | ≥ 80
COCCC(=O)NC1(c2ccc(-c3noc(C(F)(F)F)n3)cc2)CC1 [Compound 1.98, 3-methoxy-N-[1-[4-[5-(trifluoromethyl)-1,2,4-oxadiazol-3-yl]phenyl]cyclopropyl]propanamide] | 113 to 118 °C | ≥ 80 | ≥ 80 | – | ≥ 80
COC(C)C(=O)NCc1ccc(-c2noc(C(F)(F)F)n2)nc1 (stereo not shown) [Compound 1.105, 2-methoxy-N-[[6-[5-(trifluoromethyl)-1,2,4-oxadiazol-3-yl]-3-pyridyl]methyl]propanamide] | 99 to 103 °C | ≥ 80 | ≥ 80 | – | ≥ 80

Further lines, with some results ahead:

melting point | SMILES | pest or weed control at 200 ppm [1] [%] | pest or weed control at 200 ppm [2] [%] | pest or weed control at 200 ppm (Phakopsora pachyrhizi) [%] | inhibition of growth at 20 ppm [3] [%]
118 to 125 °C | CN(C)C(=O)NCc1ccc(-c2noc(C(F)(F)F)n2)cc1 [Compound 3.1, 1,1-dimethyl-3-[[4-[5-(trifluoromethyl)-1,2,4-oxadiazol-3-yl]phenyl]methyl]urea] | ≥ 80 | ≥ 80 | ≥ 80 | ≥ 80
84.8 to 86.5 °C | COC(=O)NCCc1ccc(-c2noc(C(F)(F)F)n2)cc1 [Compound 2.36, methyl N-[2-[4-[5-(trifluoromethyl)-1,2,4-oxadiazol-3-yl]phenyl]ethyl]carbamat] | ≥ 80 | ≥ 80 | ≥ 80 | ≥ 80
81 to 83 °C and 81 to 83.1 °C | CC(C)(C)OC(=O)NCCc1ccc(-c2noc(C(F)(F)F)n2)cc1 [Compound 2.1, tert-butyl N-[2-[4-[5-(trifluoromethyl)-1,2,4-oxadiazol-3-yl]phenyl]ethyl]carbamate] | ≥ 80 | ≥ 80 | – | ≥ 80
92 to 96 °C | CCOC(=O)NCCc1ccc(-c2noc(C(F)(F)F)n2)cc1 [Compound 2.5, ethyl N-[2-[4-[5-(trifluoromethyl)-1,2,4-oxadiazol-3-yl]phenyl]ethyl]carbamate] | ≥ 80 | ≥ 80 | ≥ 80 | ≥ 80
81 to 83 °C | CON(C)C(=O)NC1(c2ccc(-c3noc(C(F)(F)F)n3)cc2)CC1 [Compound 3.26, 1-methoxy-1-methyl-3-[1-[4-[5-(trifluoromethyl)-1,2,4-oxadiazol-3-yl]phenyl]cyclopropyl]urea] | ≥ 80 | ≥ 80 | ≥ 80 | ≥ 80
174.1 to 176.4 °C | CCCNC(=O)NCc1ccc(-c2noc(C(F)(F)F)n2)cc1 [Compound 3.6, 1-propyl-3-[[4-[5-(trifluoromethyl)-1,2,4-oxadiazol-3-yl]phenyl]methyl]urea] | ≥ 80 | – | ≥ 80 | ≥ 80
